Measured values: ChEMBL document CHEMBL3045580, “New aspect of gallic esters: marked effect on termite feeding” (J Pestic Sci, 2011)
Active and inactive are the calls of the source. The calls are words filed in the database; no cut-off is given here.

Assays:
Format in all cases: functional, organism-based
Coptotermes formosanus [1] = experiment: Antifeeding activity against Coptotermes formosanus undifferentiated larvae assessed as induction of feeding deterrence using 0.5% w/w compound treated filter paper disks measured after 1 week by no-choice feeding test
Coptotermes formosanus [2] = experiment: Antifeeding activity against Coptotermes formosanus undifferentiated larvae assessed as induction of feeding deterrence compound treated filter paper disks measured after 1 week by no-choice feeding test
Coptotermes formosanus [3] = experiment: Feeding stimulant effect in Coptotermes formosanus undifferentiated larvae using 0.5% w/w compound treated filter paper disks measured after 1 week by no-choice feeding test

SMILES	Activity (Coptotermes formosanus [1])	IC50 (Coptotermes formosanus [2])	Activity (Coptotermes formosanus [3])
CCCCCCCCOC(=O)c1cc(O)c(O)c(O)c1	Active	–	–
CCCOC(=O)c1cc(O)c(O)c(O)c1	Active	–	–
CCCCCCCCCCCCOC(=O)c1cc(O)c(O)c(O)c1	Active	–	–
CCCCCCCCCCOC(=O)c1cc(O)c(O)c(O)c1 [DECYL GALLATE]	Active	0.05%	–
CCCCCCCCCCCCCCCCCCOC(=O)c1cc(O)c(O)c(O)c1	–	–	Active
CCCCCCOC(=O)c1cc(O)c(O)c(O)c1	Active	–	–
CCCCCCCCCCCCCCOC(=O)c1cc(O)c(O)c(O)c1	Active	–	–
